{"source": "ChEMBL document CHEMBL3526076", "about": "“Species-dependent and receptor-selective action of bilobalide on the function of constitutive androstane receptor and pregnane X receptor” (Drug Metab Dispos, 2012)", "key": {"[1]": {"test_system": "CAR mRNA", "experiment": "Effect on CAR mRNA expression in rat hepatocytes at 10 uM by RT-PCR analysis relative to control", "format": "ADME, cell-based, Hepatocyte", "conditions": "read-out: FC; call rule not given here"}, "[2]": {"test_system": "PXR mRNA", "experiment": "Effect on PXR mRNA expression in rat hepatocytes at 30 uM by RT-PCR analysis relative to control", "format": "ADME, cell-based, Hepatocyte", "conditions": "read-out: FC"}, "[3]": {"biological_target": "T1, Nuclear receptor subfamily 1 group I member 3 (Homo sapiens, UniProt Q14994)", "T1 sequence (Q14994 whole entry)": "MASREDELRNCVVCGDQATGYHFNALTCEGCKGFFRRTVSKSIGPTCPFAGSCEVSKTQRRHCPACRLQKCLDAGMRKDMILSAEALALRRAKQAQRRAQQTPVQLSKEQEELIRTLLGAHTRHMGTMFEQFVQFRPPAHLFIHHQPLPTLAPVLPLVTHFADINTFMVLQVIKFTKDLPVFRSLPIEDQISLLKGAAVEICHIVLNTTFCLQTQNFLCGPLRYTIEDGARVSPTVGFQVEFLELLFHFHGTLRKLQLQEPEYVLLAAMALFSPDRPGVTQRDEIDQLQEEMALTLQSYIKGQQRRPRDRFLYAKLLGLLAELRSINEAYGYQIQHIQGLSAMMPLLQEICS", "experiment": "Activation of CAR in human Hu1043 hepatocytes assessed as effect on CYP2B6 mRNA expression at 10 to 60 uM after 24 hrs by RT-PCR analysis", "format": "ADME, cell-based, Hepatocyte"}, "[4]": {"biological_target": "T2, Nuclear receptor subfamily 1 group I member 3 (Rattus norvegicus, UniProt Q9QUS1)", "T2 sequence (Q9QUS1 whole entry)": "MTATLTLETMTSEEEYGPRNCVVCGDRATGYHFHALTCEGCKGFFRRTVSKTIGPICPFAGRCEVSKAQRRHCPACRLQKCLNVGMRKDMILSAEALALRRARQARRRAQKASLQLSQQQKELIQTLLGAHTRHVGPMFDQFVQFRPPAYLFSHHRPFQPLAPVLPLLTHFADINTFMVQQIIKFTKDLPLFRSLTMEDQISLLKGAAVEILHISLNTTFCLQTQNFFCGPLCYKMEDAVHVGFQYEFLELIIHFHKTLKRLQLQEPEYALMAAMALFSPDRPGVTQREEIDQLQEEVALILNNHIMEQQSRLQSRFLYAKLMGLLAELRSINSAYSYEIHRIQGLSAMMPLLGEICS", "experiment": "Activation of CAR in rat hepatocytes assessed as increase in CYP2B-mediated benzyloxyresorufin O-dealkylation at 3 uM after 24 hrs by spectrofluorometric analysis relative to phenobarbital", "format": "ADME, cell-based, Hepatocyte"}, "[5]": {"biological_target": "T2, Nuclear receptor subfamily 1 group I member 3", "experiment": "Activation of rat CAR expressed in rat hepatocytes coexpressing CYP2B1 at 30 uM after 24 hrs by dual luciferase reporter gene assay relative to phenobarbital", "format": "ADME, cell-based, Hepatocyte"}, "[6]": {"biological_target": "T3, Nuclear receptor subfamily 1 group I member 2 (Homo sapiens, UniProt O75469)", "T3 sequence (O75469 whole entry)": "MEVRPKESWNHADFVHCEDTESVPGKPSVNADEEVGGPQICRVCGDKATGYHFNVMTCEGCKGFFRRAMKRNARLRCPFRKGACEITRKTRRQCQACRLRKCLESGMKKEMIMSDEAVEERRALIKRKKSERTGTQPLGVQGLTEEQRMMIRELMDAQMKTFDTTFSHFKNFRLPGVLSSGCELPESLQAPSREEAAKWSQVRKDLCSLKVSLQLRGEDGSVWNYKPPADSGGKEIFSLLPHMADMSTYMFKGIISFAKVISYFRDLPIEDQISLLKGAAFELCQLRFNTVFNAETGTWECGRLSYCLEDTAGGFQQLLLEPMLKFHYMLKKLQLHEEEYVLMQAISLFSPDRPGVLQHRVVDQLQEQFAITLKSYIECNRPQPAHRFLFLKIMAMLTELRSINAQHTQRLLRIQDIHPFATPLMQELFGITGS", "experiment": "Activation of PXR in human Hu1043 hepatocytes assessed as effect on CYP3A4 mRNA expression at 10 to 60 uM after 24 hrs by RT-PCR analysis", "format": "ADME, cell-based, Hepatocyte"}, "[7]": {"biological_target": "T3, Nuclear receptor subfamily 1 group I member 2", "experiment": "Activation of human PXR expressed in human HepG2 cells coexpressing CYP3A4 at 0.1 to 100 uM after 24 hrs by dual luciferase reporter gene assay", "format": "ADME, cell-based", "conditions": "hepg2, 24 h"}, "[8]": {"biological_target": "T1, Nuclear receptor subfamily 1 group I member 3", "experiment": "Antagonist activity at human CAR expressed in human HepG2 cells coexpressing CYP2B6 assessed as inhibition of CITCO-induced receptor activation up to 100 uM after 24 hrs by dual luciferase reporter gene assay", "format": "ADME, cell-based", "conditions": "hepg2, 24 h"}, "[9]": {"test_system": "CAR mRNA", "experiment": "Effect on CAR mRNA expression in human hepatocytes at 10 uM by RT-PCR analysis relative to control", "format": "ADME, cell-based, Hepatocyte", "conditions": "read-out: FC"}, "[10]": {"test_system": "PXR mRNA", "experiment": "Effect on PXR mRNA expression in human hepatocytes at 10 uM by RT-PCR analysis relative to control", "format": "ADME, cell-based, Hepatocyte", "conditions": "read-out: FC"}, "[11]": {"test_system": "PXR mRNA", "experiment": "Effect on PXR mRNA expression in rat hepatocytes at 1 uM by RT-PCR analysis relative to control", "format": "ADME, cell-based, Hepatocyte", "conditions": "read-out: FC"}, "[12]": {"test_system": "PXR mRNA", "experiment": "Effect on PXR mRNA expression in rat hepatocytes at 10 uM by RT-PCR analysis relative to control", "format": "ADME, cell-based, Hepatocyte", "conditions": "read-out: FC"}, "[13]": {"biological_target": "T4, Nuclear receptor subfamily 1 group I member 2 (Rattus norvegicus, UniProt Q9R1A7)", "T4 sequence (Q9R1A7 whole entry)": "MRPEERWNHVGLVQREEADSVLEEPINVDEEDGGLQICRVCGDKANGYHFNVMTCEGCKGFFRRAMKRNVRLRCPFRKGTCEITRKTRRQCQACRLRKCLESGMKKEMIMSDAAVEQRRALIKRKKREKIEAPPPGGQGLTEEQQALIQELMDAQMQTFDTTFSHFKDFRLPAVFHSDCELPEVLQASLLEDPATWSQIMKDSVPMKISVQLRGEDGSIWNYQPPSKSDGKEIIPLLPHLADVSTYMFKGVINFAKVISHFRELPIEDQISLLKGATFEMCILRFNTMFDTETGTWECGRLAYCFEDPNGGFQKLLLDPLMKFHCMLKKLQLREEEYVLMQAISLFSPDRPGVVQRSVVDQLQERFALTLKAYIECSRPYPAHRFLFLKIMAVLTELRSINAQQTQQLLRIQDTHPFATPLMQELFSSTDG", "experiment": "Activation of PXR in rat hepatocytes assessed as effect on CYP3A-mediated testosterone 6beta-hydroxylation at 1 to 30 uM after 24 hrs by HPLC analysis", "format": "ADME, cell-based, Hepatocyte"}, "[14]": {"biological_target": "T2, Nuclear receptor subfamily 1 group I member 3", "experiment": "Activation of CAR in rat hepatocytes assessed as upregulation of CYP2B1 mRNA expression at 3 uM after 24 hrs by RT-PCR analysis relative to phenobarbital", "format": "ADME, cell-based, Hepatocyte"}, "[15]": {"biological_target": "T4, Nuclear receptor subfamily 1 group I member 2", "experiment": "Activation of PXR in rat hepatocytes assessed as upregulation of CYP3A23 mRNA expression at 1 to 30 uM after 24 hrs by RT-PCR analysis", "format": "ADME, cell-based, Hepatocyte"}, "[16]": {"biological_target": "T2, Nuclear receptor subfamily 1 group I member 3", "experiment": "Activation of rat CAR expressed in rat hepatocytes coexpressing CYP2B1 at 0.1 to 10 uM after 24 hrs by dual luciferase reporter gene assay", "format": "ADME, cell-based, Hepatocyte"}, "[17]": {"biological_target": "T2, Nuclear receptor subfamily 1 group I member 3", "experiment": "Activation of CAR in rat hepatocytes assessed as upregulation of CYP2B1 mRNA expression at 10 uM after 24 hrs by RT-PCR analysis relative to phenobarbital", "format": "ADME, cell-based, Hepatocyte"}, "[18]": {"biological_target": "T3, Nuclear receptor subfamily 1 group I member 2", "experiment": "Activation of PXR in human Hu1043 hepatocytes assessed as effect on CYP3A-mediated testosterone 6beta-hydroxylation at 10 to 60 uM after 24 hrs by HPLC analysis", "format": "ADME, cell-based, Hepatocyte"}, "[19]": {"test_system": "CAR mRNA", "experiment": "Effect on CAR mRNA expression in human hepatocytes at 50 uM by RT-PCR analysis relative to control", "format": "ADME, cell-based, Hepatocyte", "conditions": "read-out: FC"}}, "data": [{"smiles": "CC(C)(C)[C@]1(O)C[C@@H]2OC(=O)C[C@@]23C(=O)O[C@@H]2OC(=O)[C@H](O)[C@]213", "values": [{"measurement": "fold induction at 10 µM", "setting": "[1]", "value": 1.1}, {"measurement": "fold induction at 30 µM", "setting": "[2]", "value": 0.8}, {"measurement": "Activity", "setting": "[3]", "value": "Not Active"}, {"measurement": "Activity", "setting": "[4]", "value": 44, "unit": "%"}, {"measurement": "Activity", "setting": "[5]", "value": 189, "unit": "%"}, {"measurement": "Activity", "setting": "[6]", "value": "Not Active"}, {"measurement": "Activity", "setting": "[7]", "value": "Not Active"}, {"measurement": "inhibition (INH)", "setting": "[8]", "value": "Not Active"}, {"measurement": "fold induction at 10 µM", "setting": "[9]", "value": 1.4}, {"measurement": "fold induction at 10 µM", "setting": "[10]", "value": 0.7}, {"measurement": "fold induction at 1 µM", "setting": "[11]", "value": 1.1}, {"measurement": "fold induction at 10 µM", "setting": "[12]", "value": 1.4}, {"measurement": "Activity", "setting": "[13]", "value": "Not Active"}, {"measurement": "Activity", "setting": "[14]", "value": 6, "unit": "%"}, {"measurement": "Activity", "setting": "[15]", "value": "Not Active"}, {"measurement": "Activity", "setting": "[16]", "value": "Not Active"}, {"measurement": "Activity", "setting": "[17]", "value": 18, "unit": "%"}, {"measurement": "Activity", "setting": "[18]", "value": "Not Active"}, {"measurement": "fold induction at 50 µM", "setting": "[19]", "value": 1.4}]}]}
